Assay results from paper PMC11019538, “Biophysics-Guided Lead Discovery of HBV Capsid Assembly Modifiers” (ACS Infectious Diseases, 2024).
Read-outs that look alike come from different tables or passages of the source.

Assays:
[1] = MTT cytotoxicity, PBM cells; type: cell-based, human; conditions: human
Procedure: (§1) Human peripheral blood mononuclear (PBM), T lymphoblast CEM-CCRF (herein referred to as CEM cells), African green monkey kidney (Vero), or human liver carcinoma (HepG2) cells were tested via MTT assay using the CellTiter 96 Non-Radioactive Cell Proliferation (Promega) kit as previously described.[63]

[2] = MTT cytotoxicity, CEM cells; type: cell-based, human; conditions: human
Procedure: as §1

[3] = MTT cytotoxicity, Vero cells; type: cell-based, African green monkey; conditions: African green monkey
Procedure: as §1

[4] = MTT cytotoxicity, HepG2 cells; type: cell-based, human; conditions: human
Procedure: as §1

[5] = test system: HBV DNA replication in HepAD38 cells; assay: HBV DNA replication inhibition assay in HepAD38 cells (7 days, PCR of supernatant DNA); type: cell-based, hepatitis B virus; conditions: for inhibition at 200 µM: read-out: Anti-HBV activity in HepAD38 cells, % Inh. at 200 µM ± SD
Procedure: HepAD38 cells were seeded at 50,000 cells/well in collagen-coated 96-well plates. […] The experiment lasted 7 days. On day 7, total DNA was purified from the supernatant using a commercially available kit (DNeasy 96 Blood & Tissue kit, Qiagen). The HBV DNA was amplified in a polymerase chain reaction assay using LightCycler 480 II (Roche), as previously described.[63] All samples were tested in duplicate.

Cp149 = target: T1, Cp149 (Hepatitis B virus genotype D subtype adw, UniProt P03147); assay: Tryptophan fluorescence titration; type: binding; conditions: for tryptophan fluorescence quenching: 20 μM Cp149, compound up to 100 μM
T1 construct: The N-terminal domain of Cp (Cp149) is sufficient for forming regular capsids; made in house; host or cells: E. coli BL21(DE3)
T1 sequence (P03147 1-149): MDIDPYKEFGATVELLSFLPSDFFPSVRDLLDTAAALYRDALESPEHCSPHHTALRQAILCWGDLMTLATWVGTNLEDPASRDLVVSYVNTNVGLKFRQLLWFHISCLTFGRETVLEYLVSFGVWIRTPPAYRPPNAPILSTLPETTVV
Procedure: Each of the compounds was titrated into 100 μL of the protein solution to final concentrations of 0, 5, 10, 20, 50, and 100 μM in a clear bottom 96-well plate. […] Tryptophan fluorescence levels were measured by exciting the samples at 285 nm and measuring the emission at 340 nm with the Varioskan Flash (Thermo Fisher) plate reader. […] Fluorescence quenching was calculated by taking the difference of net fluorescence levels of each concentration and of the 0 μM sample. All the samples were run in triplicate, and the results were averaged. The dissociation constants (KD) were fitted by the one-site-specific binding model of GraphPad.[45]

Cp149 capsid assembly = target: T2, Cp149 capsid assembly (Hepatitis B virus genotype D subtype adw, UniProt P03147); assay: Transmission electron microscopy of assembled Cp149 products; type: biochemical; conditions: for % abnormal capsids, Trial 1 / % abnormal capsids, Trial 2 / effect on capsid morphology (TEM): 20 μM Cp149, 40 μM compound; for % abnormal capsids, Trial 1 / % abnormal capsids, Trial 2: 500 mM NaCl; for % abnormal capsids, Average: average of two trials
T2 construct: The N-terminal domain of Cp (Cp149) is sufficient for forming regular capsids; made in house; host or cells: E. coli BL21(DE3)
T2 sequence (P03147 1-149): as above
Procedure: The assembled samples of Cp149 were prepared as described in the Size Exclusion Chromatography section. Eight μL of each sample was added onto the 300 mesh Lacey Formvar carbon–copper grids (Ted Pella, Inc.) and allowed to sit for 1.5 min. The grid was then rinsed in 500 mL of deionized water for 10 s twice to rinse off the extra buffer on the grid. After drying, the sample was stained with 8 μL of 2% uranyl acetate for 1 min. After removal and drying of the uranyl acetate solution, the sample was imaged with a Hitachi HT7700 electron microscope at an accelerating voltage of 120 kV, at the IMat Materials Characterization Facility of Georgia Institute of Technology. The images underwent processing using ImageJ software. Initially, to minimize noise, a Gaussian blur filter was applied. These images were then converted into an 8 bit binary format for edge detection. ImageJ identified particles ranging in size from 800 to 2000 pixels. An example of a processed image can be seen in Figure S14. The circularity of each particle was calculated using the formula circularity = 4π × area × perimeter^–2. […] A total of four images, each containing a minimum of 100 capsids, were analyzed to determine the proportion of the abnormal capsids. The entire experiment was duplicated, and the outcomes from both sets were then averaged.

[6] = test system: human peripheral blood mononuclear (PBM) cells; assay: MTT cytotoxicity, PBM cells; type: cell-based
Procedure: as §1

[7] = test system: African green monkey kidney (Vero) cells; assay: MTT cytotoxicity, Vero cells; type: cell-based; conditions: Vero cells
Procedure: as §1

[8] = test system: human liver carcinoma (HepG2) cells; assay: MTT cytotoxicity, HepG2 cells; type: cell-based; conditions: HepG2 cells
Procedure: as §1

[9] = MTS cytotoxicity (Table S4)
[10] = test system: T lymphoblast CEM-CCRF (CEM) cells; assay: MTT cytotoxicity, CEM cells; type: cell-based, human
Procedure: as §1

[11] = test system: PBM, CEM, Vero and HepG2 cells; assay: MTT cytotoxicity, four cell lines taken together; type: cell-based
Procedure: as §1

[12] = Hepatitis B virus, HepAD38 cells, 10 μM, trial 1, read-out: % HBV DNA Inh. at 10 μM, trial 1
[13] = Hepatitis B virus, HepAD38 cells, 10 μM, trial 2, read-out: % HBV DNA Inh. at 10 μM, trial 2
[14] = Hepatitis B virus, HepAD38 cells, 10 µM, trial 3, read-out: % HBV DNA Inh. at 10 µM, trial 3
[15] = Hepatitis B virus, HepAD38 cells, 10 µM, trial 4, read-out: % HBV DNA Inh. at 10 µM, trial 4
[16] = Hepatitis B virus, HepAD38 cells, 10 μM, read-out: % inhibition in at least one of the trials
[17] = Hepatitis B virus, HepAD38 cells, trial 1, read-out: EC50, trial 1
[18] = Hepatitis B virus, HepAD38 cells, trial 2, read-out: EC50, trial 2
[19] = Hepatitis B virus, HepAD38 cells, trial 3, read-out: EC50, trial 3
[20] = Hepatitis B virus, HepAD38 cells, trial 4, read-out: EC50, trial 4
[21] = peripheral blood mononuclear (PBM) cells
[22] = T lymphoblast CEM-CCRF (CEM) cells
[23] = Hepatitis B virus, HePAD38, additional testing, Table S4
[24] = Hepatitis B virus, HePAD38, additional testing, Table S4, read-out: Anti-HBV activity in HepAD38 cells, EC50

| SMILES | inhibition at 10 µM [5, 12] | inhibition at 10 µM [5, 13] | inhibition at 10 µM [5, 14] | inhibition at 10 µM [5, 15] | inhibition at 10 µM [5, 16] | EC50 [5, 17] | EC50 [5, 18] | EC50 [5, 19] | EC50 [5, 20] | CC50 [1, 21] | CC50 [2, 22] | CC50 ([3]; Vero cells (kidney)) | CC50 ([4]; HepG2 cells (liver carcinoma)) | tryptophan fluorescence quenching (Cp149) | % abnormal capsids, Trial 1 (Cp149 capsid assembly) | % abnormal capsids, Trial 2 (Cp149 capsid assembly) | percent cytotoxicity (cell growth inhibition) at 100 µM [6] | effect on capsid morphology (TEM) (Cp149 capsid assembly) | % abnormal capsids, Average (Cp149 capsid assembly) | % cytotoxicity at 100 µM (MTT), CEM cells [10] | also measured |
| --- | --- | --- | --- | --- | --- | --- | --- | --- | --- | --- | --- | --- | --- | --- | --- | --- | --- | --- | --- | --- | --- |
| C[C@@H]1C[C@@H]([C@H](O)CC2CC(=O)NC(=O)C2)C(=O)[C@@H](C)C1 [Cycloheximide, reference compound] | – | – | – | – | – | – | – | – | – | – | – | – | – | – | – | – | – | – | – | – | CC50 [1]: 0.9 µM; CC50 [2]: 0.2 µM; CC50 ([3]; Vero cells): 0.2 µM; CC50 ([4]; HepG2 cells): 0.3 µM |
| O=C(OCc1ccc(-c2cnc3ccccc3n2)cc1)c1cccs1 [GT-32] | 48% | < 1% | < 1% | < 1% | > 50% | ≥ 10 µM | > 10 µM | > 10 µM | > 100 µM | 85 µM | 52 µM | 44 µM | 59 µM | moderate fluorescence quenching | 76% | 85% | – | – | – | – | Kd (Cp149; 20 μM Cp149, single-site fit, read-out: dissociation constant (KD), estimated): 124 µM; Kd (Cp149; one site specific binding model, Table S7, read-out: KD): 124 µM |
| Cc1nc(-c2c(-c3ccccc3)ncn2Cc2cccc3[nH]ccc23)c[nH]1 [GT-40] | 55% | 50% | < 1% | < 1% | > 50% | < 10 µM | 10 µM | > 10 µM | > 100 µM | > 100 µM | 77 µM | > 100 µM | > 100 µM | No fluorescence quenching was observed | 8% | 11% | 19% | no apparent effect | 10% | – | % cytotoxicity (MTT) at 100 µM [7]: 39%; percent cytotoxicity (MTT) at 100 µM, HepG2 [8]: 30%; KD (Cp149; one site specific binding model, Table S7): No binding |
| O=C(NCc1ccc(-c2cccnc2)nc1)c1ccc2nccnc2c1 [GT-46] | 49% | 49% | 2% | 39% | > 50% | ≥ 10 µM | ≥ 10 µM | > 10 µM | > 100 µM | > 100 µM | 38 µM | 53 µM | 82 µM | moderate fluorescence quenching | – | 78% | 20% | – | 74% | – | inhibition at 200 µM [5, 23]: 25.6 ± 2.5%; EC50 [5, 24]: > 200 µM; Kd (Cp149; KD, one site specific binding model, Table S7): 263 µM; Kd (Cp149; dissociation constant (KD), estimated, 20 μM Cp149, single-site fit): 263 µM; IC50 (in vitro): > 200 µM; MTS cytotoxicity, % Inh. at 200 µM [9]: < 1% |
| Cc1ccc2[nH]c(CCNc3nccc(-c4ccccn4)n3)nc2c1C [GT-47] | 49% | 49% | 14% | < 1% | > 50% | ≥ 10 µM | ≥ 10 µM | > 10 µM | > 100 µM | > 100 µM | > 100 µM | > 100 µM | 18 µM | reproducible but modest fluorescence quenching | 28% | 23% | 16% | induced misdirected products | 26% | 48% | inhibition at 200 µM [5, 23]: < 1%; EC50 [5, 24]: > 200 µM; % cytotoxicity (MTT) at 100 µM [7]: 31%; toxicity in at least one cell line tested [11]: 16 to 18 µM; IC50 (in vitro): > 200 µM; MTS cytotoxicity, % Inh. at 200 µM [9]: < 1% |
| NCCCC(=O)NCc1nc(-c2cccc(F)c2)c(-c2ccccn2)[nH]1 [GT-45] | 50% | 49% | < 1% | < 1% | > 50% | ≥ 10 µM | ≥ 10 µM | > 10 µM | > 100 µM | > 100 µM | > 100 µM | 66 µM | > 100 µM | reproducible but modest fluorescence quenching | 40% | 35% | 41% | induced misdirected products | 38% | 36% | percent cytotoxicity (MTT) at 100 µM, HepG2 [8]: 41% |
| CCOC(=O)c1cc(-c2cc(C(=O)OCC)c3ccccc3n2)nc2ccccc12 [GT-33] | 60% | 37% | < 1% | < 1% | > 50% | < 10 µM | > 10 µM | > 10 µM | > 100 µM | > 100 µM | > 100 µM | 76 µM | 86 µM | reproducible but modest fluorescence quenching | 31% | 26% | 5.6% | induced misdirected products | 29% | 32% | – |
| O=C(OCc1ccccc1)c1cccnc1 [GT-16] | – | – | – | – | – | – | – | – | – | – | – | – | – | – | – | – | – | – | – | – | HBV DNA inhibition (%) at 10 µM ([5]; HepAD38 cells, 10 µM, first round of selected compounds): 1.7%; CC50 [6]: > 100 µM; CC50 [10]: > 100 µM; CC50 [7]: > 100 µM; CC50 [8]: > 100 µM |
| O=C(NCCN1CCOCC1)c1ccc2nc(-c3ccccc3)c(-c3ccccc3)nc2c1 [GT-36] | – | – | – | – | – | – | – | – | – | – | – | – | – | – | – | – | – | – | – | – | % HBV DNA Inh. at 10 μM, trial 1 ([5]; HepAD38 cells, 10 μM, trial 1): 11%; % HBV DNA Inh. at 10 μM, trial 2 ([5]; HepAD38 cells, 10 μM, trial 2): 11%; EC50 ([5]; HepAD38 cells, trial 1, read-out: EC50, trial 1): > 10 µM; EC50 ([5]; HepAD38 cells, trial 2, read-out: EC50, trial 2): > 10 µM; CC50 [6]: 10 µM; CC50 [10]: 18 µM; CC50 [7]: 31 µM; CC50 [8]: 29 µM |
